Assay [1] concerns the target T1, Bone morphogenetic protein receptor type-2 (Homo sapiens) (UniProt Q13873).
T1 sequence (whole entry): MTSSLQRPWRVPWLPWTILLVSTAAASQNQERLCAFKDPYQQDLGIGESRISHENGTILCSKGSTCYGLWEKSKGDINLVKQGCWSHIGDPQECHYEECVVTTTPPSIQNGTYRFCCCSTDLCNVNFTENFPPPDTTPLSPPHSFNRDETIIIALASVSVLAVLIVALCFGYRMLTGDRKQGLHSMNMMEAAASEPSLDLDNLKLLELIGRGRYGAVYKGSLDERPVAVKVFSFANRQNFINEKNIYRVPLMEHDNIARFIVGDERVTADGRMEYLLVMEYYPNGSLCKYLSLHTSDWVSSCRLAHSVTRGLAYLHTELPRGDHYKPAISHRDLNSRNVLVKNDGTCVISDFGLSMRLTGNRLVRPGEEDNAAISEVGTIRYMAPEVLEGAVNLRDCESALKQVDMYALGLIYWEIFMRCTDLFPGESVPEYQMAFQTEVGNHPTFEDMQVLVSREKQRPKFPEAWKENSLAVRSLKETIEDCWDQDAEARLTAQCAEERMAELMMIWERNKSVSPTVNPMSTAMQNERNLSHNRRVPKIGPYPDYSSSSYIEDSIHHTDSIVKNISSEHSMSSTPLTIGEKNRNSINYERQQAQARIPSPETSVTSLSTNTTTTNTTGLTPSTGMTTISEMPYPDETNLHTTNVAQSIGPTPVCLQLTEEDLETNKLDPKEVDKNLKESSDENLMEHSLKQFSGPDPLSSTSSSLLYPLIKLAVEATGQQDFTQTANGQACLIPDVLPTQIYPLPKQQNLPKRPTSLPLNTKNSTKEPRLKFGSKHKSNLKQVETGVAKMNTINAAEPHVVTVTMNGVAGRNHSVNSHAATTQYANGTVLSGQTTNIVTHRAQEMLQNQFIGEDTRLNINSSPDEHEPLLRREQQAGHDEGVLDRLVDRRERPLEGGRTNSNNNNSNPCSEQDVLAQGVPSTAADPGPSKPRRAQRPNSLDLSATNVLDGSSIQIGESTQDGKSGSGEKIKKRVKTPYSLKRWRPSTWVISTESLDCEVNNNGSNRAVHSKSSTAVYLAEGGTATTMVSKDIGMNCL
The experiment in a line: Selectivity interaction (LanthaScreen Eu Kinase Binding Assay) EUB0001632a BMPR2. As to conditions: at 10 µM. (In general: Time-resolved FRET reads energy transfer from a long-lived donor to a nearby acceptor.)

The target of assay [2] is T2, Phosphorylase b kinase gamma catalytic chain, liver/testis isoform (Homo sapiens) (UniProt P15735).
T2 sequence (whole entry): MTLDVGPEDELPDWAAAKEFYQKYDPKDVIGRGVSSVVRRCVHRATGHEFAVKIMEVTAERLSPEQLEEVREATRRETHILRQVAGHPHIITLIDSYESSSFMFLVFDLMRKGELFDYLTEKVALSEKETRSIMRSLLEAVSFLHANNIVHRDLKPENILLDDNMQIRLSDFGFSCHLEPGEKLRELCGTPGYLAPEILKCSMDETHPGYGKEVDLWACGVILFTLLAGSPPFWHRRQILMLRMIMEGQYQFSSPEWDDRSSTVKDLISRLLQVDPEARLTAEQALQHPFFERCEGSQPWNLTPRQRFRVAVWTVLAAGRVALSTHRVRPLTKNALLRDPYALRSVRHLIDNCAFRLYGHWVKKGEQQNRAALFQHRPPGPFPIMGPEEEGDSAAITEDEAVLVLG
The experiment in a line: Selectivity interaction (KinomeScan (DiscoverX)) EUB0000045b PHKG2.

Assay [3] has as its target Fibroblast growth factor receptor 3 (Homo sapiens, UniProt P22607). The experiment in a line: Selectivity interaction (ProQinase) EUB0000171b FGFR3. As to conditions: at 5 µM.
The target of assay [4] is T3, Ephrin type-A receptor 8 (Homo sapiens) (UniProt P29322).
T3 sequence (whole entry): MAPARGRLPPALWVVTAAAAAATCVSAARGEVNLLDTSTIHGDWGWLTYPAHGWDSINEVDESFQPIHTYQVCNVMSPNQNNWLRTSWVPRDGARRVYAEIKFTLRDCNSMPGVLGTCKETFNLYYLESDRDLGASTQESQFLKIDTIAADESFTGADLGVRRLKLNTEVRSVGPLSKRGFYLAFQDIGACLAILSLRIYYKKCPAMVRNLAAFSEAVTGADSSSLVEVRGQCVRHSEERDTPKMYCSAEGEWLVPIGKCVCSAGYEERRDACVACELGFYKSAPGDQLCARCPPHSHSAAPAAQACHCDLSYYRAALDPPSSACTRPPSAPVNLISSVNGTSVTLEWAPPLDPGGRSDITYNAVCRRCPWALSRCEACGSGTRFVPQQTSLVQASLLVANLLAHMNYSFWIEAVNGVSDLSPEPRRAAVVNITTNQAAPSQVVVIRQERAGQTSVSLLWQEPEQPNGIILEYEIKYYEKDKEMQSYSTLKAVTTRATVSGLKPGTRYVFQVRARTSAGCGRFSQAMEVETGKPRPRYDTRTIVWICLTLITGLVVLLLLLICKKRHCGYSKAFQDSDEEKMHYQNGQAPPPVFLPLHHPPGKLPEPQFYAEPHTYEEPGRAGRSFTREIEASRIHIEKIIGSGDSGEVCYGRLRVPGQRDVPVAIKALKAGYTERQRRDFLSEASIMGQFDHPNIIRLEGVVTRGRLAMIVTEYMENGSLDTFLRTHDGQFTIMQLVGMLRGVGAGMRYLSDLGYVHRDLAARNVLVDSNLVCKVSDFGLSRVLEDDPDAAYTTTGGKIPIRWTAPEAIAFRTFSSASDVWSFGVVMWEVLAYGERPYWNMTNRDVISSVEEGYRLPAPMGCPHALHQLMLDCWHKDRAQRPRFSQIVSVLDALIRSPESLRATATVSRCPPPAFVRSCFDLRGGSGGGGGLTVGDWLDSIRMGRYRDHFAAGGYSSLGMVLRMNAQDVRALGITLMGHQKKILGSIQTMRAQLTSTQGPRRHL
In words: Selectivity interaction (KinomeScan (DiscoverX)) EUB0000618a EPHA8. Particulars: at 10 µM.

For assay [5], the target named is Mitogen-activated protein kinase 9 (Homo sapiens, UniProt P45984). The experiment in a line: Selectivity interaction (KinomeScan (DiscoverX)) EUB0001079a MAPK9. Particulars: at 1 µM.
Mitogen-activated protein kinase 9, sequence (P45984 whole entry, looked up): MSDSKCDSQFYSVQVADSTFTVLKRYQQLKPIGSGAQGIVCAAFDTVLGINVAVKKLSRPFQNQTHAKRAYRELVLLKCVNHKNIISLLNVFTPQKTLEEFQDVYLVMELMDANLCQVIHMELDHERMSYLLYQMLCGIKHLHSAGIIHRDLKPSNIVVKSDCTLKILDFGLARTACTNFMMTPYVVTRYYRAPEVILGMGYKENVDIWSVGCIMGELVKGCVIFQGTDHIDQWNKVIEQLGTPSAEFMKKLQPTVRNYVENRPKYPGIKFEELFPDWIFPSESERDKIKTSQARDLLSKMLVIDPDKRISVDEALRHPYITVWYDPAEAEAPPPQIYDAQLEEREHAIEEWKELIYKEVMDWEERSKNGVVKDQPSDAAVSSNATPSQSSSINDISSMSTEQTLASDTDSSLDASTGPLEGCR

Fibroblast growth factor receptor 3, sequence (P22607 23-806 limits assumed): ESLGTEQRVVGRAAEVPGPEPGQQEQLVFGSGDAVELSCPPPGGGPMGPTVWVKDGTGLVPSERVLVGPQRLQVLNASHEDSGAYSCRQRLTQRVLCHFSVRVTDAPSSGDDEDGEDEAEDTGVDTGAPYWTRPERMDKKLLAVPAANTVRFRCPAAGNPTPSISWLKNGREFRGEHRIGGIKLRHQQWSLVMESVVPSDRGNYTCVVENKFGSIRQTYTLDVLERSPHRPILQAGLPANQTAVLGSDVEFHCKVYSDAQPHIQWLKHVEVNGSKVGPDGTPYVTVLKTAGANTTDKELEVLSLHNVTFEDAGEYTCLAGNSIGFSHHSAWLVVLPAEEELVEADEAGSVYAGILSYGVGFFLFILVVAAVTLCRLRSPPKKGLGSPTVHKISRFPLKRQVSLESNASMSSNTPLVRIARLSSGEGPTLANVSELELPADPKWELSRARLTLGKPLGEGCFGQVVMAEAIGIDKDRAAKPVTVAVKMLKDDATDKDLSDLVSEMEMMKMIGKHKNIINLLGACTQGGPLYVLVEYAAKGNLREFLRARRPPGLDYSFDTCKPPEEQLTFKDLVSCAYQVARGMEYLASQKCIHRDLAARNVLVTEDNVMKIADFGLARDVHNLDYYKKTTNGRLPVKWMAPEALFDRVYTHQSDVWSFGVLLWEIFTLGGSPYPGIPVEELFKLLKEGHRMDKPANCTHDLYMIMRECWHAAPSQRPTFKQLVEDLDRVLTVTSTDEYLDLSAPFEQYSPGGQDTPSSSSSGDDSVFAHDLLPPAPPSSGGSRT

Regarding `Cn1cc(-n2cnc3c(NCc4nc5cc(Cl)c(Cl)cc5[nH]4)nc(N4CCOCC4)nc32)cn1`, in assay [1], the % of inhibition is -6.55%.

As to `C=CC(=O)Nc1cc(-n2c(=O)ccc3cnc4ccc(-c5ccc(NS(C)(=O)=O)cc5)cc4c32)ccc1C`, the % of control in assay [2] (at 1 µM) was determined as 74%; in assay [2] (at 10 µM), 88%. As to `C=CC(=O)Nc1cccc(C(=O)Nc2ccc(Nc3cc(-c4[nH]c(SC)nc4C)ccn3)cc2)c1`, the % of control in assay [3] was determined as 91%. `O[C@H]1CC[C@H](Nc2ncc3nc(Nc4c(F)cc(F)cc4F)n([C@H]4CCOC4)c3n2)CC1`: the % of control in assay [4] stood at 72%. Take `Nc1cnc(N2CCc3cc(S(=O)(=O)Nc4c(F)cc(Cl)cc4F)cc(N4CCCC4=O)c32)nc1` [TP-020n]: the % of control in assay [5] stood at 84%.

The values are drawn from ChEMBL document CHEMBL5465560, “Selectivity Literature for EUbOPEN Chemogenomic Library” (2024).
